Test system: nerve-muscle junction of a lobster's walking leg
Assay: Effect on excitatory postsynaptic potential (EPSP) in the neuromuscular specimen of a lobster's walking leg
Settings: for concentration at which the peptide enhanced EPSP: sample dissolved in artificial seawater on the nerve-muscle junction side, excitatory nerve electrically stimulated; for biological activity of the synthetic peptide compared with the natural peptide: synthetic vs natural peptide
Procedure: The biological activity of the present peptides can be assayed according to the methods described in Japanese Patent Laid-Open No. 4-198161, in which excitatory postsynaptic potential (EPSP) is generated in the neuromuscular specimen of a lobster's walking leg, and the effect of the compound given to the nerve fibers on the EPSP is determined.
In general, substances inhibiting EPSP are believed to be glutamate antagonists or inhibitors for the release of glutamic acid, and the substances enhancing EPSP are believed to be glutamate-like agonists or accelerators for the release of glutamic acid.
The effect of the present peptides on excitatory postsynaptic potential (EPSP) was measured according to the method disclosed in Japanese Patent Laid-Open No. 4-198161. Thus, the shell of a lobster's walking leg was removed to expose the excitatory nerve and the inhibitory nerve, and a stimulating electrode was attached thereto. Then the nerve-muscle junction was exposed, and a recording electrode was attached thereto. The walking leg equipped with the electrodes was transferred to a container filled with an artificial seawater, and a partition was set up between the stimulating electrode part and the recording electrode part. The samples to be measured were dissolved into the artificial seawater in the recording electrode side (i.e., the side containing the nerve-muscle junction). Subsequently, the excitatory nerve was electrically stimulated and the EPSP, which was induced by glutamic acid released from the nerve end in response to the stimulation, was recorded.

Question: Which “concentration at which the peptide enhanced EPSP” value does the source give for “H-Arg-Ile-Lys-Ile-Gly-Leu-Phe-Asp-Gln-Leu-Ser-Arg-Leu-NH2 (H-RIKIGLFDQLSRL-NH2) [peptide (97)]” here?
Answer: 200 nM

Question: What about the “biological activity of the synthetic peptide compared with the natural peptide” value of the same substance?
Answer: same biological activity as the natural peptides

Question: With “H-Arg-Ile-Lys-Ile-Gly-Leu-Phe-Asp-Gln-Leu-Ser-Lys-Leu-NH2 (H-RIKIGLFDQLSKL-NH2) [peptide (1)]” as the substance, how does the “concentration at which the peptide enhanced EPSP” value read?
Answer: 1000 nM

Question: What about the “biological activity of the synthetic peptide compared with the natural peptide” value of the same substance?
Answer: same biological activity as the natural peptides

Reference: US6573243B1, “Pompilid wasp-derived neuropeptides” (Suntory Limited, priority 1997, dated 2003)
